Results taken from BindingDB's records for doi:10.1016/s0960-894x(01)00026-9 (University of Minnesota, 2001).

How the values were obtained:
[1] = Inhibitory concentration against Protein phosphatase 2A (25 nM) isolated from bovine myocardial tissue
[2] = target: Serine/threonine-protein phosphatase PP1 catalytic subunit (Oryctolagus cuniculus); assay: Inhibitory concentration against Protein phosphatase 1(10 nM) isolated from rabbit muscle

IC50 [1]	IC50 [2]	Compound
> 1000 µM	–	C=C1[C@@H](O)[C@@H]2O[C@]3(CCCO3)CC[C@H]2O[C@@H]1[C@@H](O)C[C@H](C)[C@H]1O[C@@]2(CCCCO2)CC[C@H]1C [okadaic acid analogue]
0.304 µM	94 µM	C=C1[C@@H](O)[C@@H]2O[C@]3(CC[C@H](/C=C/[C@@H](C)[C@@H]4CC(C)=C[C@@]5(O[C@H](C[C@@](C)(O)C(=O)O)CC[C@H]5O)O4)O3)CC[C@H]2O[C@@H]1CO [okadaic acid analogue]

Compound	IC50 [1]	IC50 [2]
C=C1[C@@H](O)[C@@H]2O[C@]3(CC[C@H](/C=C/[C@@H](C)[C@@H]4CC(C)=C[C@@]5(O[C@H](C[C@@](C)(O)C(=O)O)CC[C@H]5O)O4)O3)CC[C@H]2O[C@@H]1[C@@H](O)C[C@H](C)[C@H]1O[C@@]2(CCCCO2)CC[C@H]1C [okadaic acid analogue]	0.007 µM	–
